Measurements: patent US9290487B2, “Pharmaceutical composition for treating diabetes” (Ajinomoto Co., Inc., priority 2011, dated 2016)
Structures can show the parent of a compound that is named as a salt. Where two headings read alike, the source gives them in different places.

Legend:
[1] = target: human GYS1 (glycogen synthase) (Homo sapiens (Human), UniProt P13807); test: Measurement of glycogen synthase activity (coupled pyruvate kinase/lactate dehydrogenase assay, absorbance at 340 nm); type: biochemical; conditions: concentration inducing relative activity of 50% (100% = Ex. 1 of WO/2011/058154 at 10 μM)
Procedure: A human GYS1 expression plasmid (pCDNA3.1(+)-hGYS1) was constructed by the following method. Using a human skeletal muscle cDNA of Human MTC Panel I (Takara Bio Inc., 636742) as a template, a human GYS1 gene was amplified by a PCR method using cloning primers (Forward Primer: ATGCCTTTAAACCGCAC (SEQ ID NO: 1), Reverse Primer: TTAGTTACGCTCCTCGC (SEQ ID NO: 2)). Using the amplified human GYS1 sequence as a template, a restriction enzyme sequence was added by a PCR method using sub-cloning primers (Forward Primer: […] (SEQ ID NO: 3), Reverse Primer: […] (SEQ ID NO: 4)). Then, the human GYS1 gene was introduced between a Xho I site and a Xba I site of pCDNA3.1(+) (Invitrogen Corporation, V790-20).
Glycogen synthase was prepared by the following method according to the published article (THE JOURNAL OF BIOLOGICAL CHEMISTRY Vol. 269, No. 41, 25534-25542, 1994). Human kidney-derived HEK293T cells were seeded in a dish (Thermo Fisher Scientific Inc., 168381) using a 10% FBS-containing DMEM (Nacalai Tesque, Inc., 0845874) medium, and cultured overnight. Then, using Lipofectamine LTX (Invitrogen Corporation, 15338-100), the human GYS1 expression vector was transfected according to the attached manual. After culturing under conditions of 37° C. and 5% CO2 for 2 days, the resultant was dissolved in a lysis buffer (50 mM Tris-HCl (pH 8.0), 10 mM EDTA, 2 mM EGTA, 100 mM NaF, 1 mM PMSF, 1 mM DTT, 1× Complete (Roche Diagnostics K. K., 1873580)), homogenized, and then centrifuged at 16000×g at 4° C. for 15 minutes. To the precipitated fraction, a lysis buffer was added. Re-dissolved fractions were used as glycogen synthase for evaluation.
The glycogen synthase activity was measured by the following method. To a polystyrene 96-well plate, a solution containing 30 mM glycylglycine (pH 7.3), 40 mM KCl, 20 mM MgCl2, 9.2% DMSO containing one of the test compounds at various concentrations, and 10 mM glucose-6-phosphate (Sigma-Aldrich Corporation, G7879) was added by 12 μL/well.
Next, a substrate solution containing 30 mM glycylglycine (pH 7.3), 4.3 mg/mL of glycogen (Sigma-Aldrich Corporation, G8876), 21.6 mM UDP-glucose (Sigma-Aldrich Corporation, U4625), 21.6 mM phosphoenolpyruvic acid (Sigma-Aldrich Corporation, P0564), and 4.05 mM NADH (Sigma-Aldrich Corporation, N8129) was added by 18 μL/well.
Further, an enzyme solution containing 50 mM Tris-HCl (pH 8.0), 27 mM DTT (Nacalai Tesque, Inc., 14128-04), 0.2 mg/mL of bovine serum albumin, 0.17 mg/mL of the glycogen synthase, 1.5 μL of a pyruvate kinase/lactate dehydrogenase solution (Sigma-Aldrich Corporation, P0294) was added by 18 μL/well to prepare a reaction solution. After the reaction solution was incubated (at 30° C. for 25 minutes for Examples 1 to 10, at 37° C. for 20 minutes for Examples 11 to 75), the absorbance at 340 nm was measured using Benchmark Plus (Bio-Rad Laboratories, Inc.).
The activities of the test compounds were calculated by the following method. The change in the absorbance (ΔA340) was calculated by subtracting the absorbance at 340 nm of the reaction solution containing the compound and DMSO from the absorbance at 340 nm of a reaction solution not containing the compound but containing only DMSO. The ΔA340 of the reaction solution containing the compound of Example 1 in WO/2011/058154 at the final concentration of 10 μM was taken as 100% to calculate the relative activity (%) of the test compounds at various concentrations. EC50 representing the concentration of the compound which induces an increase in the relative activity to 50% was calculated using XLfit (idbs).

[2] = target: PPAR-α (Homo sapiens (Human), UniProt Q07869); test: Measurement of PPAR-α activity (GAL4 luciferase reporter assay in CV-1 cells); type: cell-based; conditions: 100(A/B), B = compound in WO/2011/058154 at 100 μM, read-out: PPARα relative fold induction (%)
Procedure: The PPAR-α activity was measured according to the published article (THE JOURNAL OF BIOLOGICAL CHEMISTRY Vol. 270, No. 22, 12953-12956, 1995).
Plasmids used for the PPAR-α activity measurement were constructed as follows. A luciferase expression plasmid (UASx5-TK-Luc) used was obtained by introducing a sequence, in which five yeast GAL4-binding sequences are linked in tandem, upstream of a thymidine kinase promoter of pTAL-Luc (Takara Bio Inc., 6252-1). A PPAR-α receptor expression plasmid (hGR-GAL4-hPPARα) used was obtained by introducing a human GR N-terminal region (1-76 aa), a yeast GAL4 DNA-binding region (1-147 aa), and a PPARα ligand-binding region (167-468 aa) between a Not I site and a Sal I site of pExchange-1 Core Vector (Invitrogen Corporation, 211176).
A reporter assay was conducted by the following method using Cercopithecus aethiops kidney-derived CV-1 cells. The CV-1 cells were seeded in a 96-well plate (Thermo Fisher Scientific Inc., 4938) at 2×10^4 cells/well using a 10% FBS-containing DMEM (Nacalai Tesque, Inc., 0845874) medium. After culturing under conditions of 37° C. and 5% CO2 for 2 hours, the plasmids were transfected. Lipofectamine LTX (Invitrogen Corporation, 15338-100) was used for the transfection according to the attached manual. The plasmid solution was prepared by adding a mixture solution of the luciferase expression plasmid and the PPAR-α receptor expression plasmid to OPTI-MEM I (Invitrogen Corporation, 11058-021). After the transfection was conducted, the test compound was added, and cultured at 37° C. in the presence of 5% CO2 for 18 to 20 hours. After the culturing was completed, the luciferase activity was measured with Luminescensor JNR (ATTO) using Bright-Glo (Promega Corporation, E2620).
The fold induction of PPAR-α by the test compounds was calculated by the following method. For the compounds of Examples 1, 4, 5, 7, and 9, PPAR-α relative fold induction (%) was defined as 100 (A/B), where A represents the maximum value of PPAR-α activities with the test compound at 0.3 μM, 1 μM, 3 μM, 10 μM, 30 μM, and 100 μM, and B represents the PPAR-α activity with the compound in WO/2011/058154 at 100 μM. For the compounds of Examples 11, 15, 19, 22, 26, and 32, PPAR-α relative fold induction (%) was defined as 100 (A/B), where A represents the maximum value of PPAR-α activities with the test compound at 3 μM, 10 μM, 30 μM, and 100 μM, and B represents the PPAR-α activity with the compound in WO/2011/058154 at 100 μM.

[3] = incubation at 30° C. for 25 minutes (Examples 1 to 10)
[4] = A = maximum activity at 0.3, 1, 3, 10, 30 and 100 μM
[5] = incubation at 37° C. for 20 minutes (Examples 11 to 75)
[6] = A = maximum activity at 3, 10, 30 and 100 μM
[7] = test concentrations not stated for these examples

Chain of human GYS1 (glycogen synthase) (P13807 whole entry): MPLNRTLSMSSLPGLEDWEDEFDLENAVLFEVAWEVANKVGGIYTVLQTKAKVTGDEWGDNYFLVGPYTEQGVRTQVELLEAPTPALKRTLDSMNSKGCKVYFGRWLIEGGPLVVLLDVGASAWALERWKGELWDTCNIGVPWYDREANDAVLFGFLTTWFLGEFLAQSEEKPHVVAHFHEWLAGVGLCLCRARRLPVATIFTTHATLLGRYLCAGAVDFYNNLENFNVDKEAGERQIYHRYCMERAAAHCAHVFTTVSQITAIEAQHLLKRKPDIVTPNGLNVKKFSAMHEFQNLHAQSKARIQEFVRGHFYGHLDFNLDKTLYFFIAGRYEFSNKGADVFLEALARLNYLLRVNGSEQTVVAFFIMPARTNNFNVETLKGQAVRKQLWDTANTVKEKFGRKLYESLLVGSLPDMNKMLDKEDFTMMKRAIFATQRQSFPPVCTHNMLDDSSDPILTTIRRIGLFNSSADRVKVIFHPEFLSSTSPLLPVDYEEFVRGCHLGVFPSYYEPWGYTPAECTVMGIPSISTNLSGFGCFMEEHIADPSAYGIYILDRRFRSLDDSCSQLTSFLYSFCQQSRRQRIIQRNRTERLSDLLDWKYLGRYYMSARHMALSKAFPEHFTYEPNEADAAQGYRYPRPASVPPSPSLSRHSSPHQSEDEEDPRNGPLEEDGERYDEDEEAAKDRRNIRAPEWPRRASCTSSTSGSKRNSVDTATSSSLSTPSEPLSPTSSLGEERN
Chain of PPAR-α (Q07869 167-468): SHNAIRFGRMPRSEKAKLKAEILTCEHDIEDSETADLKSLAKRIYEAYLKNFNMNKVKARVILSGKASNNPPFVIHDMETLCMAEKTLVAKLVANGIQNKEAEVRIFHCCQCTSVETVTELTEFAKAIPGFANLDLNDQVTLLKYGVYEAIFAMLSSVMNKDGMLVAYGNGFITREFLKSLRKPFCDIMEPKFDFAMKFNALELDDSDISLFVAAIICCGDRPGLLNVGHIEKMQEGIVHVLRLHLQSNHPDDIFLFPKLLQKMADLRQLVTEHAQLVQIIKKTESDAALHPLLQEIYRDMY

SMILES | EC50 [1, 3] [nM] | Emax [2, 4] [%] | EC50 [1, 5] [nM] | Emax [2, 6] [%] | Emax [2, 7] [%]
O=C(O)[C@@H]1CCCN1C(=O)c1cccc(COc2ccc(-c3cc(F)cc4c3OCC4)cc2)c1 [compound of Ex. 1, 1-(3-{[4-(5-fluoro-2,3-dihydro-1-benzofuran-7-yl)phenoxy]methyl}benzoyl)-L-proline] | 260 | 10 |  |  | 
O=C(O)[C@@H]1CCCN1C(=O)c1cccc(COc2ccc(-c3cccc4c3OCO4)cc2)c1 [compound of Ex. 4, 1-(3-{[4-(1,3-benzodioxol-4-yl)phenoxy]methyl}benzoyl)-L-proline] | 250 | 17 |  |  | 
O=C(O)[C@@H]1CCCN1C(=O)c1cccc(COc2ccc(-c3cccc4c3OCC4)cc2)c1 [compound of Ex. 5] | 500 | 10 |  |  | 
O=C(O)[C@@H]1CCCN1C(=O)c1cccc(COc2ccc(-c3cccc4ccoc34)cc2)c1 [compound of Ex. 7] | 260 | 17 |  |  | 
O=C(O)[C@@H]1CCCN1C(=O)c1cccc(COc2ccc(-c3cccc4c3OCC=C4)cc2)c1 [compound of Ex. 9] | 320 | 11 |  |  | 
O=C(O)[C@@H]1CCCN1C(=O)c1cccc(COc2ccc(-c3cc(F)c(F)c4ccoc34)cc2)c1 [compound of Ex. 15, 1-(3-{[4-(4,5-difluoro-1-benzofuran-7-yl)phenoxy]methyl}benzoyl)-L-proline] |  |  | 22 | 20 | 
O=C(O)[C@@H]1CCCN1C(=O)c1cccc(COc2ccc(-c3cc(F)c(F)c4c3OCC4)cc2)c1 [compound of Ex. 19, 1-(3-{[4-(4,5-difluoro-2,3-dihydro-1-benzofuran-7-yl)phenoxy]methyl}benzoyl)-L-proline] |  |  | 31 | 12 | 
CC1(C)Cc2cc(F)cc(-c3ccc(OCc4cccc(C(=O)N5CCC[C@H]5C(=O)O)c4)cc3)c2O1 [compound of Ex. 22, 1-(3-{[4-(5-fluoro-2,2-dimethyl-2,3-dihydro-1-benzofuran-7-yl)phenoxy]methyl}benzoyl)-L-proline] |  |  | 180 | 15 | 
O=C(O)[C@@H]1CCCN1C(=O)c1cccc(COc2ccc(-c3cccc4[nH]ccc34)cc2)c1 [compound of Ex. 26, 1-(3-{[4-(1H-indol-4-yl)phenoxy]methyl}benzoyl)-L-proline] |  |  | 160 | 13 | 
O=C1COc2c(cccc2-c2ccc(OCc3cccc(C(=O)N4CCC[C@H]4C(=O)O)c3)cc2)N1 [compound of Ex. 32, 1-(3-{[4-(3-oxo-3,4-dihydro-2H-1,4-benzoxazin-8-yl)phenoxy]methyl}benzoyl)-L-proline] |  |  | 750 | 3 | 
O=C(O)[C@@H]1CCCN1C(=O)c1cccc(COc2ccc(-c3cc(F)c(F)cc3S)cc2)c1 [compound of Ex. 40, 1-(3-{[(4′,5′-difluoro-2′mercaptobiphenyl-4-yl)oxy]methyl}benzoyl)-L-proline] |  |  | 110 |  | 10
N#CCNc1cc(-c2ccc(OCc3cccc(C(=O)N4CCC[C@H]4C(=O)O)c3)cc2)cc(F)c1F [compound of Ex. 42, 1-{3-[({3′-[(cyanomethyl)amino]-4′,5′-difluorobiphenyl-4-yl}oxy)methyl]benzoyl}-L-proline trifluoroacetic acid salt] |  |  | 54 |  | 13
O=Cc1cc(F)c(F)cc1-c1ccc(OCc2cccc(C(=O)N3CCC[C@H]3C(=O)O)c2)cc1 [compound of Ex. 43, 1-(3-{[(4′,5′-difluoro-2′-formylbiphenyl-4-yl)oxy]methyl}benzoyl)-L-proline] |  |  | 70 |  | 11
COC(=O)c1cc(F)c(F)cc1-c1ccc(OCc2cccc(C(=O)N3CCC[C@H]3C(=O)O)c2)cc1 [compound of Ex. 44, 1-[3-({[4′,5′-difluoro-2′-(methoxycarbonyl)biphenyl-4-yl]oxy}methyl)benzoyl]-L-proline] |  |  | 810 |  | 10
CC(=O)COc1cc(-c2ccc(OCc3cccc(C(=O)N4CCC[C@H]4C(=O)O)c3)cc2)cc(F)c1F [compound of Ex. 49, 1-[3-({[3′,4′-difluoro-5′-(2-oxopropoxy)biphenyl-4-yl]oxy}methyl)benzoyl]-L-proline] |  |  | 220 |  | 17
